Source: ChEMBL document CHEMBL1201862, “PubChem BioAssay data set” (2004)
Calls of active or inactive are those of the source.

Key:
[1] = target: T1, G-protein coupled receptor 35 (Homo sapiens, UniProt Q9HC97); assay: SAR analysis of Antagonists of the GPR35 Receptor using an Image-Based Assay - Set 6. [Related pubchem assays (depositor defined):AID2013, AID2026]; assay type: functional
[2] = target: G-protein coupled receptor 55 (Homo sapiens, UniProt Q9Y2T6); assay: SAR Analysis of Selective Antagonists of GPR55 using an Image-Based Assay - Set 4. [Related pubchem assays (depositor defined):AID2013, AID2026]; assay type: functional;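 note: antagonism of response to 5 µM lysophosphatidylinositol agonist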
Sequence of G-protein coupled receptor 55 (Q9Y2T6 whole entry): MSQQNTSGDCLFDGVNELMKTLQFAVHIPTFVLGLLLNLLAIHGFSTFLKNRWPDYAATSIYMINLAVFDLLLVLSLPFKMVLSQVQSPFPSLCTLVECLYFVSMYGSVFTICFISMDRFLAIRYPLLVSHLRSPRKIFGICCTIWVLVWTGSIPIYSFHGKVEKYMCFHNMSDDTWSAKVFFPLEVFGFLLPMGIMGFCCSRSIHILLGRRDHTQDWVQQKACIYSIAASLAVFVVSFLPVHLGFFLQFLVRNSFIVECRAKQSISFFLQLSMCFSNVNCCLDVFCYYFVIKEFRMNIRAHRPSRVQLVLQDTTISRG

Cannabinoid receptor 2 [3] = target: T2, Cannabinoid receptor 2 (Homo sapiens, UniProt P34972); assay: SAR analysis of agonists of the Cannabinoid Receptor 2 using an Image-Based Assay - Set 3. [Related pubchem assays (depositor defined):AID2013, AID2026]; assay type: functional
T2 sequence (P34972 whole entry): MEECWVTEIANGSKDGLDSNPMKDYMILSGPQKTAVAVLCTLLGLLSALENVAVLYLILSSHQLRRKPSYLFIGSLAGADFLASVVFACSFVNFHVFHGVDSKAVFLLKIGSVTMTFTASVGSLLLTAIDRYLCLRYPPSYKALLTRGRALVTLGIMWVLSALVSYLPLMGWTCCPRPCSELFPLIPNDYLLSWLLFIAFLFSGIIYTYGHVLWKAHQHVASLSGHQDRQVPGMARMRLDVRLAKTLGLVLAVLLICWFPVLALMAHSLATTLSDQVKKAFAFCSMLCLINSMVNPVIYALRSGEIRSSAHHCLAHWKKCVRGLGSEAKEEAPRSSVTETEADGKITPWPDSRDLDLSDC

Cannabinoid receptor 1 [4] = target: T3, Cannabinoid receptor 1 (Homo sapiens, UniProt P21554); assay: SAR analysis of agonists of the Cannabinoid Receptor 1 using an Image-Based Assay - Set 4. [Related pubchem assays (depositor defined):AID2013, AID2026]; assay type: functional
T3 sequence (P21554 whole entry): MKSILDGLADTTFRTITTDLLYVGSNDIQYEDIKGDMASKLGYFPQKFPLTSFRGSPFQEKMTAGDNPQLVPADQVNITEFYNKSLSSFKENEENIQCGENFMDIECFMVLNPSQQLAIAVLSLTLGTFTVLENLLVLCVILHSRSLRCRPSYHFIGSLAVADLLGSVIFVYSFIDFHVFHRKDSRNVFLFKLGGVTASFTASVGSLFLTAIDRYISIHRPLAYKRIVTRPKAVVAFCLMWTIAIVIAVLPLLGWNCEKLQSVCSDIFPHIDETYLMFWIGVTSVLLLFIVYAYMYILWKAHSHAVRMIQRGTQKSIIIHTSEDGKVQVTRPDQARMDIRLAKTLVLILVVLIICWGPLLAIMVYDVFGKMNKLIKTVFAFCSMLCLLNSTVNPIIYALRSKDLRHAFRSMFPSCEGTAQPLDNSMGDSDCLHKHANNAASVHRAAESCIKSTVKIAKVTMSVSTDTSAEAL

Cannabinoid receptor 2 [5] = target: T2, Cannabinoid receptor 2; assay: SAR analysis of antagonists of the Cannabinoid Receptor 2 using an Image-Based Assay - Set 3. [Related pubchem assays (depositor defined):AID2013, AID2026]; assay type: functional
Cannabinoid receptor 1 [6] = target: T3, Cannabinoid receptor 1; assay: SAR analysis of antagonists of the Cannabinoid Receptor 1 using an Image-Based Assay - Set 4. [Related pubchem assays (depositor defined):AID2013, AID2026]; assay type: functional
[7] = target: T1, G-protein coupled receptor 35; assay: SAR analysis of Agonists of the GPR35 Receptor using an Image-Based Assay - Set 4. [Related pubchem assays (depositor defined):AID2013, AID2026]; assay type: functional
[8] = target: T4, Kappa-type opioid receptor (Homo sapiens, UniProt P41145); assay: SAR analysis of small molecule antagonists of the kappa opioid receptor via a luminescent beta-arrestin assay - Set 5. [Related pubchem assays (depositor defined):AID1778, AID1785]; assay type: functional
T4 sequence (P41145 whole entry): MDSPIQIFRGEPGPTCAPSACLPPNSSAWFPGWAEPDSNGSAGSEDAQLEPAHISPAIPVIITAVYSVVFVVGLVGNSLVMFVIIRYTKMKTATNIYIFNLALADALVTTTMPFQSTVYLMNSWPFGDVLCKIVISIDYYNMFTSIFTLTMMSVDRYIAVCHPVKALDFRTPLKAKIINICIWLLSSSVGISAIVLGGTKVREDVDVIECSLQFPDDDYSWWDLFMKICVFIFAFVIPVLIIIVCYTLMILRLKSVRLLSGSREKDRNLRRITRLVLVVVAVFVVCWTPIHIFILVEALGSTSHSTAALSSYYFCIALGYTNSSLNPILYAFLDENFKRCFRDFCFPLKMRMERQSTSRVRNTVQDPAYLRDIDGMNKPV

[9] = target: T4, Kappa-type opioid receptor; assay: SAR analysis of small molecule antagonists of the kappa opioid receptor via a luminescent beta-arrestin assay - Set 4. [Related pubchem assays (depositor defined):AID1777, AID1778, AID1785, AID1786, AID1966, AID2133, AID2136, AID2285]; assay type: functional
[10] = Counterscreen for IDE inhibitors: Luminescence-based cell-based high throughput dose response assay to identify compounds that are cytotoxic to HEK cells. [Related pubchem assays: 434962 (Primary screen (IDE inhibitors in singlicate)), 449730 (Counterscreen (Cytotoxicity in triplicate)), 435028 (Confirmation (IDE inhibitors in triplicate)) …; assay type: functional; conditions: HEK293
Ion channel NompC = Ion channel NompC (Danio rerio, UniProt Q7T1G6); assay: Dose response cell-based high-throughput screening assay for agonists of the transient receptor potential channel N1 (TRPN1). [Related pubchem assays (depositor defined):AID1424, AID1448]; assay type: functional
Sequence of Ion channel NompC (Q7T1G6 whole entry): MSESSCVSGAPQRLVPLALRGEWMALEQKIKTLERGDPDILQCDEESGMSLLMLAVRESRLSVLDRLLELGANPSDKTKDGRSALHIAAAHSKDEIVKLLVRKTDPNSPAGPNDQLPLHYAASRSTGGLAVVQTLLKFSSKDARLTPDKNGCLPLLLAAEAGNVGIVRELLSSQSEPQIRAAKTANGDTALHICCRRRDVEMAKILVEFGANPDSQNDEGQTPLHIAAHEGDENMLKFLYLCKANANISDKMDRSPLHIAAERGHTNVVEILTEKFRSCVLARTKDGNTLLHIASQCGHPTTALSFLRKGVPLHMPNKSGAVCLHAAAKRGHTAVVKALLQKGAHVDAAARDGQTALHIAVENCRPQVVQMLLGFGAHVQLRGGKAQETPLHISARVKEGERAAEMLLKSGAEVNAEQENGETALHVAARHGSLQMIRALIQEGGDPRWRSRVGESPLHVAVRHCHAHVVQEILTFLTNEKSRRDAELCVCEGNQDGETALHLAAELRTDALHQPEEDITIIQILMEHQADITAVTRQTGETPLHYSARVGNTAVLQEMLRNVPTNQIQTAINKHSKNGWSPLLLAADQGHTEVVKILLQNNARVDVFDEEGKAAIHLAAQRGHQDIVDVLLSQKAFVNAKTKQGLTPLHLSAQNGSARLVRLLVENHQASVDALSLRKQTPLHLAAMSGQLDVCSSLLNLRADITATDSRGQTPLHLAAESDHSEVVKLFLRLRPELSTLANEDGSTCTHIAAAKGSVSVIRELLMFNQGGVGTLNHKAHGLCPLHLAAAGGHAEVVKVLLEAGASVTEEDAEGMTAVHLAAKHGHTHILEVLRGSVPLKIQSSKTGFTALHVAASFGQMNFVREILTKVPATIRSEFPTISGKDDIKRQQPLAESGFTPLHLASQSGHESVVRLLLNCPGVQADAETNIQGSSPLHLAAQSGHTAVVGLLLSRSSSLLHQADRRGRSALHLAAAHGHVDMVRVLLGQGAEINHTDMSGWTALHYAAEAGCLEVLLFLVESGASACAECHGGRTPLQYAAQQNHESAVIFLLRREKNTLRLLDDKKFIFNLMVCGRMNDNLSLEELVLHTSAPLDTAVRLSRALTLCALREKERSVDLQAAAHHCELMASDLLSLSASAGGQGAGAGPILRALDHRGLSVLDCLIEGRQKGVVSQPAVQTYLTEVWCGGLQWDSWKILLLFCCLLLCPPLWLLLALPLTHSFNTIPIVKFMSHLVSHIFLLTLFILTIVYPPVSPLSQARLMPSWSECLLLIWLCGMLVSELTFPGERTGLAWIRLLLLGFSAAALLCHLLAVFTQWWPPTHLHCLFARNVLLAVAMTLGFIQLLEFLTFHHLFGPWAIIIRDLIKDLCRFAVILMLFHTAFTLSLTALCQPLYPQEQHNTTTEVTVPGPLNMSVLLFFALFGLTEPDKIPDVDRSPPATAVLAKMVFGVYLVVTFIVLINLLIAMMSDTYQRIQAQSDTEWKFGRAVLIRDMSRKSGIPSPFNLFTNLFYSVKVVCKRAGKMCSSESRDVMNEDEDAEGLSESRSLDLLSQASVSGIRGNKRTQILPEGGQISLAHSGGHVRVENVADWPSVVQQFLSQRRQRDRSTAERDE

Aminopeptidase N = target: T5, Aminopeptidase N (Plasmodium falciparum FcB1/Columbia, UniProt O96935); assay: malaria alanyl aminopeptidase activity blockers – biochemical, fluorogenic H-Leu-NHMec substrate, 1536-well (AID 1445); parameters: species or system Plasmodium falciparum 3D7, 3D7
T5 sequence (O96935 whole entry): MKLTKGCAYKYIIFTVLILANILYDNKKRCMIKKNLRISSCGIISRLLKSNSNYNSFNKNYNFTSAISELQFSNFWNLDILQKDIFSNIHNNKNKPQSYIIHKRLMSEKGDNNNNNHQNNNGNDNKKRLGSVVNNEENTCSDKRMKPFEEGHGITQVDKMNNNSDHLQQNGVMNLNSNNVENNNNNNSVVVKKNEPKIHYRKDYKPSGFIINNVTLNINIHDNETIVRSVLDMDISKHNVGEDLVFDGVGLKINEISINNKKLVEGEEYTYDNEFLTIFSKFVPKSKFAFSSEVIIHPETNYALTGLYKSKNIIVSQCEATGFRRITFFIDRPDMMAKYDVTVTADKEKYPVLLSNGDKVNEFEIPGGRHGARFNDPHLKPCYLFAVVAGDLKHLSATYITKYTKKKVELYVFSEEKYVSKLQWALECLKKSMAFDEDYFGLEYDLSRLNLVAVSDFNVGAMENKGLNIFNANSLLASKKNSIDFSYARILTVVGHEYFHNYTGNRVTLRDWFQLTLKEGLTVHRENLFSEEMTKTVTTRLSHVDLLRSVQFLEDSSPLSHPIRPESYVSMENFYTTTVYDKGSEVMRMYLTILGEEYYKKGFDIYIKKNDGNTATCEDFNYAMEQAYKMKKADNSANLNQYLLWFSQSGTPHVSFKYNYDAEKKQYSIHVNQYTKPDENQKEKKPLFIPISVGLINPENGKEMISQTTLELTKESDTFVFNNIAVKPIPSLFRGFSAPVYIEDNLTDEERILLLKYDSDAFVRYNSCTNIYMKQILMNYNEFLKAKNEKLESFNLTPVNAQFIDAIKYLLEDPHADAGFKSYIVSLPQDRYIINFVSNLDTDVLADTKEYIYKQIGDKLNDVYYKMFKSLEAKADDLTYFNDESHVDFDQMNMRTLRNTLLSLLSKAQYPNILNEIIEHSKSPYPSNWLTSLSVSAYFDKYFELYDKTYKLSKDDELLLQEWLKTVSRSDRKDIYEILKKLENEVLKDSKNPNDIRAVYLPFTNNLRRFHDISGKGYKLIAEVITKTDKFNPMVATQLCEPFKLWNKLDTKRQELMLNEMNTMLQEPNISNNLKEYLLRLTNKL

Insulin-degrading enzyme = target: T6, Insulin-degrading enzyme (Homo sapiens, UniProt P14735); assay: Dose Response: Fluorescence polarization-based cell-based high throughput dose response assay for inhibitors of insulin-degrading enzyme (IDE). [Related pubchem assays: 434962 (Primary screen (IDE inhibitors in singlicate)), 449730 (Counterscreen (Cytotoxicity in triplicate)), 435028 (Confirmation (IDE inhibitors in triplicate)), 434984 (Summary …; assay type: functional
T6 sequence (P14735 whole entry): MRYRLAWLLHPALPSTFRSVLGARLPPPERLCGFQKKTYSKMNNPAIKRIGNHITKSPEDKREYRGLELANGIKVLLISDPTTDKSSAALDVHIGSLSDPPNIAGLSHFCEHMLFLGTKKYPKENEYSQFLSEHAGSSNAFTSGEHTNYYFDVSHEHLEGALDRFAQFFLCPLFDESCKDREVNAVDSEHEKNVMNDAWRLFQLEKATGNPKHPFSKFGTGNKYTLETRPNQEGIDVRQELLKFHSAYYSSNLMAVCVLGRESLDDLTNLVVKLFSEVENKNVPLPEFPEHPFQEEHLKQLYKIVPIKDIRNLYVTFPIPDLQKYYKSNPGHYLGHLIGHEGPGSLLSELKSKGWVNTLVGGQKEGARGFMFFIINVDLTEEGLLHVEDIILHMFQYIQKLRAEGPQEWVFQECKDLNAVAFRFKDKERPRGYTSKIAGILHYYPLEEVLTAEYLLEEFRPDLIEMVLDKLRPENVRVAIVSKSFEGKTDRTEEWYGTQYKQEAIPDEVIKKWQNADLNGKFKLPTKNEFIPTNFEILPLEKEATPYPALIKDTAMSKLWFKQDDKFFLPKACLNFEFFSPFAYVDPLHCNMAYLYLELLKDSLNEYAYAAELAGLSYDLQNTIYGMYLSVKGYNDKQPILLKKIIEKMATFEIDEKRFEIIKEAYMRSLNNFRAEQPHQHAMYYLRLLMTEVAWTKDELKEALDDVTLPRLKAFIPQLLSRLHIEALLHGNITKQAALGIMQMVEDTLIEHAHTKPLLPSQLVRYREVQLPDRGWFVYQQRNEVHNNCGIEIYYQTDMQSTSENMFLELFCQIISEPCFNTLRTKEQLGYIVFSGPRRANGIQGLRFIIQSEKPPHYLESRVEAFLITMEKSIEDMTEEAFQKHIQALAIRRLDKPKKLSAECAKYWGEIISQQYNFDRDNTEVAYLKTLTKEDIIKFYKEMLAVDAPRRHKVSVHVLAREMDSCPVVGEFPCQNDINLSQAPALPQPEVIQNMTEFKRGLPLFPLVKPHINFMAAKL

Mucolipin-3 = Mucolipin-3 (Homo sapiens, UniProt Q8TDD5); assay: Fluorescence counterscreen assay for […] agonists: dose response cell-based high-throughput screening assay to identify agonists of the transient receptor potential channel ML3 (TRPML3). [Related pubchem assays: 1424, 1448 ]; assay type: functional
Sequence of Mucolipin-3 (Q8TDD5 whole entry): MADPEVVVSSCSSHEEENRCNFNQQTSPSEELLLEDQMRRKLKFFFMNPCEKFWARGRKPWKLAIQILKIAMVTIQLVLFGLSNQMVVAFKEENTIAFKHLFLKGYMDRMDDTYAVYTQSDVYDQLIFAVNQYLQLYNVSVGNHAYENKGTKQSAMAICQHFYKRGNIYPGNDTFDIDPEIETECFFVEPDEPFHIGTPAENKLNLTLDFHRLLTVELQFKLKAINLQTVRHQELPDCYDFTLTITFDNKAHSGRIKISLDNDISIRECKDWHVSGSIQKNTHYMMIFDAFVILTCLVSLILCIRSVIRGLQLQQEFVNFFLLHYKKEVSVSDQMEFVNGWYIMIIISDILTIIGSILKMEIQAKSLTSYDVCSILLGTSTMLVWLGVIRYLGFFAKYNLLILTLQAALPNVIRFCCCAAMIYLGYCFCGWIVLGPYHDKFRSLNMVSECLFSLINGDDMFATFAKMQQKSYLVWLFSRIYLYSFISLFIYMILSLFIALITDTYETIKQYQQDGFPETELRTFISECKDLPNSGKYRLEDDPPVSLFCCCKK

[11] = target: Dual specificity tyrosine-phosphorylation-regulated kinase 1A (Rattus norvegicus, UniProt Q63470); assay type: biochemical, Homo sapiens
[12] = target: Intestinal-type alkaline phosphatase (Homo sapiens, UniProt P09923); assay: human intestinal alkaline phosphatase activators, dose response, biochemical, luminescence, uHTS hits (AID 463120); assay type: functional
Sequence of Intestinal-type alkaline phosphatase (P09923 whole entry): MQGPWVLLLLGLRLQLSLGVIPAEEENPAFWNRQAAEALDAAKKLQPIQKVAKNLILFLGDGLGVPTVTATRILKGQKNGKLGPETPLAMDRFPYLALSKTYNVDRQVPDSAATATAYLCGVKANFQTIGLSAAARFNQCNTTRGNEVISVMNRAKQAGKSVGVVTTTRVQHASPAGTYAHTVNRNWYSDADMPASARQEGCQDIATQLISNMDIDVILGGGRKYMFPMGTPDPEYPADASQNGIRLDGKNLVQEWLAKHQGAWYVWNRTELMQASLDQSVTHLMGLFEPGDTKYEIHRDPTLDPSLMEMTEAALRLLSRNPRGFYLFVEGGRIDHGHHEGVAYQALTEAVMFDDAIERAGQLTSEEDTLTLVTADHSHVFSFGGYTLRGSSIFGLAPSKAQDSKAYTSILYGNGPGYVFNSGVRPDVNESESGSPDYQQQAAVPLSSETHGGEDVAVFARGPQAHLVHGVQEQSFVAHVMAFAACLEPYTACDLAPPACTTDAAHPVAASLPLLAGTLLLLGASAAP

T1 sequence (Q9HC97 whole entry): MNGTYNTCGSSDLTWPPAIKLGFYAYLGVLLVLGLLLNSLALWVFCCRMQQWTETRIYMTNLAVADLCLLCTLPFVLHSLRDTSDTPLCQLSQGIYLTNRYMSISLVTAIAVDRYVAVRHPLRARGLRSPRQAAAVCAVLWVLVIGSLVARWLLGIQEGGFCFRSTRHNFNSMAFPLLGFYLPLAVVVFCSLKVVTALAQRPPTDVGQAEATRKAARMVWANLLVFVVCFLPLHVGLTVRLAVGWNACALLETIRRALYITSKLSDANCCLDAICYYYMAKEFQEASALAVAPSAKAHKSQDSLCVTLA

What does the source list for Cc1nc(N2CCN(C(=O)c3ccc4c(c3)nc(C)n4C)CC2)c2c3c(sc2n1)CC(C)CC3 (stereo not drawn)?
IC50 [1]: > 32 µM (inactive); IC50 [2]: > 32 µM (inactive); EC50 (Cannabinoid receptor 2 [3]): 26.8 µM (inactive); EC50 (Cannabinoid receptor 1 [4]): > 32 µM (inactive); IC50 (Cannabinoid receptor 2 [5]): > 32 µM (inactive); IC50 (Cannabinoid receptor 1 [6]): 19.6 µM (inactive); EC50 [7]: > 32 µM (inactive)

With O=C(Cn1c(=O)c2cccn2c2cc(Br)cnc21)NCCCN1CCN(c2ccccc2)CC1 as the molecule, how does the IC50 [8] read?
The IC50 was > 20 µM (inactive).

And the IC50 [9]?
Its IC50 is > 20 µM (inactive).

For COc1ccc(C2(C(=O)N3CCC(n4nc(-c5ccccc5)oc4=O)CC3)CC2)cc1, which IC50 [1] is on record?
Its IC50 is > 32 µM (inactive).

And the IC50 [2]?
Its IC50 is 9.55 µM (active).

What about the EC50 (Cannabinoid receptor 2 [3]) of the same molecule?
Its EC50 is > 32 µM (inactive).

What about the EC50 (Cannabinoid receptor 1 [4]) of the same molecule?
The EC50 was > 32 µM (inactive).

What about the IC50 (Cannabinoid receptor 2 [5]) of the same molecule?
The IC50 was > 32 µM (inactive).

What about the IC50 (Cannabinoid receptor 1 [6]) of the same molecule?
Its IC50 is 7.11 µM (active).

What about the EC50 [7] of the same molecule?
The EC50 was > 32 µM (inactive).

Which results are given for O=C(O)c1cccc(-c2ccc(/C=N/Nc3ccc([N+](=O)[O-])cc3)o2)c1?
IC50 [10]: > 55.6 µM (not active); EC50 (Ion channel NompC): 12 µM (inactive); IC50 (Aminopeptidase N): 27.3 µM (active); IC50 (Insulin-degrading enzyme): > 55.9 µM (not active); EC50 (Mucolipin-3): > 29.9 µM (not active); AC50 [11]: 6.38 µM (active)

For O=C(N/N=C/c1cccc([N+](=O)[O-])c1)c1nc(O)c2ccccc2n1, which EC50 [12] is on record?
Its EC50 is 8.34 µM (active).
